Reference: paper PMC10610505, “Synthesis and Biological Evaluation of Some New 3-Aryl-2-thioxo-2,3-dihydroquinazolin-4(1H)-ones and 3-Aryl-2-(benzylthio)quinazolin-4(3H)-ones as Antioxidants; COX-2, LDHA, α-Glucosidase and α-Amylase Inhibitors; and Anti-Colon Carcinoma and Apoptosis-Inducing Agents” (Pharmaceuticals, 2023)
Read-outs that look alike come from different tables or passages of the source.

Tests used:
COX-2 = target: T1, COX-2 (Homo sapiens, UniProt P35354); assay: COX-2 inhibitory screening assay (Cayman kit); type: biochemical; conditions: for Increase in COX-2 inhibitory efficiency by duplicating the concentration: % inhibition at 0.200 mg/mL divided by % inhibition at 0.100 mg/mL; for inhibition at 100 µg/mL: at 0.100 mg/mL; for inhibition at 100 µg/mL / inhibition at 200 µg/mL: read-out: COX-2 mean % inhibition ± SD; for inhibition at 200 µg/mL: at 0.200 mg/mL
T1 construct: purchased Cayman Chemical Company 701080
T1 sequence (P35354 18-604): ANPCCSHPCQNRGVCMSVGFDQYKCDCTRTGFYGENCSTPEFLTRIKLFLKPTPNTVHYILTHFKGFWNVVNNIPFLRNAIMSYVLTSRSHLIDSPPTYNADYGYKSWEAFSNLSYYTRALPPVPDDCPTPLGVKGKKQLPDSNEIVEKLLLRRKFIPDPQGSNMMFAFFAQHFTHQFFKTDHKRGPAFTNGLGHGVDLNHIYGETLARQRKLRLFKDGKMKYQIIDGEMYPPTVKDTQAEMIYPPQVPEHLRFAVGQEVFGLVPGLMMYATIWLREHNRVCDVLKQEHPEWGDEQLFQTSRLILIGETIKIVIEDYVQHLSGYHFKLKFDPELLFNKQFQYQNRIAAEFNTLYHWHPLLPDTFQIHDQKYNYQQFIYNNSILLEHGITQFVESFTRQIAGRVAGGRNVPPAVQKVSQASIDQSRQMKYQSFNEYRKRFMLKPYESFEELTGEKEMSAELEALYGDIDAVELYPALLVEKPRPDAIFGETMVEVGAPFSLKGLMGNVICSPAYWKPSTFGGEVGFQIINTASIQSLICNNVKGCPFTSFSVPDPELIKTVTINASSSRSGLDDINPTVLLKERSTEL
Summary of the method: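 Human COX-2 with heme preincubated with compound 10 min at 37° C in Tris-HCl pH 8.0 with phenol and EDTA, then arachidonic acid added for 2 min at 37° C. PGF2α, formed by stannous chloride reduction, quantified by enzyme immunoassay at 410 nm; % inhibition versus untreated control.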

α-amylase = assay: In vitro α-amylase (AA) inhibition assay; conditions: mean ± SD of three replicates; for IC50: read-out: Mean IC50 α-Amylase (AA)
Protocol: Then, 180 µL of Labtest (the amylase substrate) was added and the samples were incubated for 8 min, followed by measuring the first reaction at 620 nm to obtain (X1). Afterwards, the reaction mixture was incubated for an additional 5 min at 37 °C; then, the second reaction was measured to obtain the final reading (X2). […] The results were expressed as IC50 µg/mL (as well as µM) and were determined from the standard curves.

[1] = Viability assay (LDH release), HUVEC; type: cell-based, human; conditions: human
Protocol: The samples were diluted in Dulbecco’s Modified Eagle’s Medium, consisting of 10% fetal bovine serum (FBS), added to cells grown and cultured for 24 h in a 5% CO2-humidified incubator at 37 °C. Thereafter, the activity of lactate dehydrogenase released from damaged cells was determined in the collected supernatant aliquots using an ELISA end-point assay (Benchmark Plus, Bio-Rad, CA, USA); 0.1% Triton X-100 in the assay medium and the assay medium only were used as the positive and negative controls, respectively. Cell viability was expressed as a relative percentage of the OD values (at 550 nm) for compound-treated cells (final concentration of 200 µg /mL) and the negative control, which was shown as the mean % ± SD (n = 3). The results of the viability assays for the potential cytotoxic candidates were compared with the % of viable human umbilical vein endothelial cells (HUVEC) at the same concentration. These cells were grown in Dulbecco’s Modified Eagle’s Medium (PAN-Biotech; Barcelona, Spain) containing 10% FBS (Sigma Aldrich; St. Quentin-Fallavier, France), 2 mM Glutamine (Sigma Aldrich), 100 units/mL penicillin and […] streptomycin (Life Technologies; Paisley, UK).

[2] = target: purified recombinant human LDHA protein (Homo sapiens, UniProt P00338); assay: Lactate dehydrogenase A (LDHA) inhibitory assay; type: biochemical; conditions: for Fold change of LDHA inhibition as compared to 0.1 mg/mL: % inhibition at 0.200 mg/mL divided by % inhibition at 0.100 mg/mL; for inhibition at 100 µg/mL: at 0.1 mg/mL; for inhibition at 100 µg/mL / inhibition at 200 µg/mL: read-out: LDHA mean % inhibition ± SD; for inhibition at 200 µg/mL: at 0.2 mg/mL
Protocol: The LDHA inhibitory effectiveness was investigated by measuring the amounts of consumed NADH [73]. […] The fluorescence of NADH, which has an excitation wavelength of 340 nm and an emission wavelength of 460 nm, was detected using a spectrofluorometer. […] The LDHA inhibitory efficiency was expressed as an inhibition percentage, which was determined via a comparison with the negative control experiments.

[3] = DPPH radical scavenging assay; type: biochemical; conditions: for Mean IC50 for scavenging initial DPPH radicals: mean ± SD of three replicates; for IC50: mean ± SD, converted from mg/mL, read-out: Mean IC50 for scavenging initial DPPH radicals (converted)
Summary of the method: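 Ethanolic DPPH mixed 1:1 with test compound, BHT as reference antioxidant, incubated 1 h at room temperature in darkness. Residual DPPH absorbance read at 519 nm against a no-compound control; scavenging % = (1 − Acompound/AControl) × 100, from three independent triplicate measurements.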

| SMILES | Increase in COX-2 inhibitory efficiency by duplicating the concentration (COX-2) | inhibition at 100 µg/mL (COX-2) | inhibition at 200 µg/mL (COX-2) | IC50 (COX-2; mean ± SD of three replicates) | Mean IC50 α-Amylase (AA) (α-amylase) | IC50 (α-amylase) | viability at 200 µg/mL ([1]; human umbilical vein endothelial cells (HUVEC), 200 µg/mL, read-out: Mean % of viable cells ± SD, HUVEC) | Fold change of LDHA inhibition as compared to 0.1 mg/mL [2] | inhibition at 100 µg/mL [2] | inhibition at 200 µg/mL [2] | IC50 ([2]; mean ± SD of three replicates) | Mean IC50 for scavenging initial DPPH radicals [3] | IC50 [3] | viability at 200 µg/mL [1] |
| --- | --- | --- | --- | --- | --- | --- | --- | --- | --- | --- | --- | --- | --- | --- |
| O=c1c2cc(Cl)ccc2[nH]c(=S)n1-c1cccc(C(F)(F)F)c1 [Compound 3a, 6-Chloro-2-thioxo-3-(3-trifluoromethyl-phenyl)-2,3-dihydro-1H-quinazolin-4-one] | 1.70 fold | 57 ± 2.83% | 97 ± 1.34% | 281 µM | 124.333 ± 4.042 µg/mL | 349 µM | 97 ± 2.65% | 1.84 fold | 53.5 ± 1.13% | 98.5 ± 1.34% | 273 µM | 68 ± 4 µg/mL | 191 µM |  |
| O=c1c2cc(Cl)ccc2[nH]c(=S)n1-c1ccc([N+](=O)[O-])cc1 [Compound 3f, 6-Chloro-3-(4-nitro-phenyl)-2-thioxo-2,3-dihydro-1H-quinazolin-4-one] | 2.34 fold | 11.4 ± 0.778% | 26.8 ± 3.89% |  | 111.667 ± 3.512 µg/mL | 335 µM |  | 1.59 fold | 21.5 ± 1.56% | 34.2 ± 1.77% |  | 227 ± 10 µg/mL | 680 µM | 99.67 ± 0.577% |
